According to patent US20040176317A1, “Functionalised maltosyl fluoride as glycosyl donor in the chemo-enzymatic preparation of ratio of oligo-or polysaccharides” (priority 2001, published 2004):

Assay: Storage stability of the lyophilized fluoride
Format: physicochemical
Details: for stability of the fluoride: at −18° C. in the lyophilized form
Experimental: This fluoride is stable at −18° C. in the lyophilized form.

Structure (SMILES)	first decomposition compound	stability of the fluoride
OCC1O[C@H](O[C@@H]2C(CO)O[C@H](F)C(O)C2O)C(O)C(O)[C@@H]1OC1CCCCO1 (stereo partly drawn) [Example 1e, 4-0-tetrahydropyranyl-α-D-glucopyran-osyl-(1→4)-α-D-glucopyranosyl fluoride]	α-maltosyl fluoride	stable
OC[C@H]1O[C@H](F)[C@H](O)[C@@H](O)[C@@H]1O[C@H]1O[C@H](CBr)[C@@H](OC2CCCCO2)[C@H](O)[C@H]1O (stereo partly drawn) [Example 4d, 6-bromo-6-deoxy-4-O-tetrahydro-pyranyl-α-D-glucopyranosyl-(1→4)-α-D-glucopyranosyl fluoride]		stable
